# Test results from patent US20200385396A1, “Compond for treatment or prevention of obesity or diseases related to obesity, and application thereof” (SHANGHAI INSTITUTES FOR BIOLOGICAL SCIENCES, CHINESE …, priority 2017, published 2020).
# Tests used:
# Assay type in all cases: in vivo, mouse
# high-fat diet obese mice [1] = test: Fat and muscle content (magnetic resonance) of high-fat diet obese mice
# Method: Mice were intraperitoneally injected with DMSO or HLY72 (dissolved in DMSO) 25 μL within 2 hours before turning off the lamp. During the intragastric experiment, the high concentration of HLY72 dissolved in DMSO was dissolved in 10% cyclodextrin, and the total volume was 100 μL Volume by gavage, so that the final concentration of DMSO was less than 10%. The diet was weighed at the 3rd hour, the 6th hour, the 12th hour, and the 24th hour respectively after the lights out. The corresponding mouse body weight was also weighed at the same time before the daily administration. The fat content of mice was measured with the magnetic resonance fat content measuring instrument of the animal platform in SIBCB.
# In the experiment, high-fat diets were used to feed obese mice weighing about 40 grams for 22 weeks, according to the way used in the previous 3 courses.
# high-fat diet obese mice [2] = test: Blood biochemical tests and liver slices of obese mice; settings: 20 mg/kg
# Method: Mouse liver tissues were taken and fixed in 4% paraformaldehyde at 4° C. overnight. It was washed twice with PBS buffer solution in 30% and 50% ethanol for 30 minutes each, and stored in 70% ethanol at 4° C. (1) Gradient dehydration of ethanol: 80% ethanol for 30 minutes, 95% ethanol for 30 minutes, 100% ethanol for 15 minutes, and fresh 100% ethanol for 15 minutes. (2) Xylene transparent: ½ absolute ethanol plus ½ xylene for 15 minutes, xylene for 10 minutes, and fresh xylene for 10 minutes. (3) Wax immersion, embedding, sectioning: ½ xylene plus ½ paraffin for 30 minutes, paraffin 1 for 90 minutes, paraffin 2 for 120 minutes, paraffin 3 overnight for embedding, conventional section thickness was 4 μm, pasted on clean glass slides that have been processed, the slides were baked at 37° C. overnight, collected in a slide box and sealed at 4° C. (4) Xylene dewaxing, gradient ethanol rehydration: tissue sections were dewaxed three times with xylene, 10 minutes each time, and placed in ½ xylene plus ½ absolute ethanol for 15 minutes. After 5 minutes each of 100%, 90%, 80%, 70%, 50% and 30% ethanol, it was put in pure water for 5 minutes. (5) HE staining, filming: hematoxylin staining at room temperature for 20 minutes, rinsed under running water, color separation with 0.1% hydrochloric acid and ethanol for 1 second, rinsed under running water, after 1 minute each of 30%, 50%, 70%, 80% and 95% ethanol, it was stained with 1% eosin for 1 minute. It was put in absolute ethanol for 1 minute and dehydrated with fresh absolute ethanol twice for 5 minutes each time, it was put in ½ absolute ethanol plus ½ xylene for 15 minutes, and then xylene 1, 2, 3 for 5 minutes each time. Sealed with neutral gum and stored at room temperature in a dry place. The cell platform Olympus BX51 microscope was used for filming.
# The effects on the various adverse indicators of obesity after drug administration were detected.
# [3] = system: lipid metabolism related genes; test: Expression of lipid metabolism related genes in tissues (RT-PCR); settings: 20 mg/kg 3 consecutive days
# Method: Mice fed with normal diet are injected with 20 mg/kg of HLY72 for 3 consecutive days, and the white adipose tissue (A) is taken to detect fat storage, fatty acid synthesis and decomposition-related gene expression. Liver (B) is taken to detect fatty acid transport and oxidative gene expression. Muscle (C) is taken to test the fatty acid transport and oxidative gene expression (14 mice per group).
# After the mice were euthanized, the corresponding tissues were immediately peeled off and quickly frozen with liquid nitrogen and stored at −80° C. For the cell sample in the 6-well petri dish, after removing the culture medium, 1 mL of Trizol was added and placed at room temperature for 10 minutes, then transferred to a 1.5 mL EP tube and stored at −80° C. When extracting tissue RNA, 1.5 mL of Trizol was added to the tissue homogenization tube containing steel balls, the tissue was removed from the −80° C. refrigerator and put into the homogenization tube to homogenize and crush. RNA was extracted by phenol-chloroform-isopropanol method. Using the Superscript™III first strand synthesis system (Invitrogen) kit, 1 μg of mRNA was reverse transcribed into cDNA, and random primers were used for reverse transcription. Quantitative SYBR green PCR kit (Takara) kit was used for quantitative PCR reaction. The instrument for PCR reaction was ABI-QuantStudio 6 Realtime PCR instrument.
# After injection of HLY72 in mice, the epididymal white adipose tissue, liver and muscle tissue were taken to detect the expression of lipid metabolism related genes. […] The expression of fatty acid transporter gene FAT (CD36), FATP2, FATP5 on the liver cell membrane is increased, the expression of the transporter gene CPT1A for fatty acid entering the mitochondria and the key enzyme gene ACADM of fatty acid β-oxidation are increased (FIG. 15b). At the same time, the expression of muscle cell membrane fatty acid transporter genes FATP1 and FATP4 are increased, and the expression of the transporter gene CPT1B for fatty acid entering the mitochondria and the key enzyme gene ACADM of fatty acid β-oxidation are increased (FIG. 15c). Changes in gene expression in these tissues indicate that liver and muscle tissues have increased the use of fatty acids.
# [4] = system: obese mice fed with high-fat diet (DIO); test: Metabolic cage, obese mice fed with high-fat diet (DIO); settings: 20 mg/kg
# Method: Before starting the metabolic cage experiment, the mice were fed in a single cage for 1 week. After a one-week single cage adaptation period, three days before the start of the small molecule compound injection, the mice were injected with 25 μL of DMSO within 2 hours before turning off the lights every afternoon, allowing them to adapt to the injection for 3 days. After 3 days of injection, the acclimated mice were put into the metabolic cage. Starting from the same day, 25 μL of DMSO and HLY72 (20 mg/kg) were injected within 2 hours before turning off the lights for 3 consecutive days.
# Next, the effect of HLY72 on the metabolism of mice is studied. We use two methods: (1) the relevant metabolic indexes of the mice are directly measured using the metabolic cage, and (2) the expression of the relevant key metabolic genes is detected. three metabolic parameters are obtained through the metabolic cage experiment: (1) Energy expenditure (EE), energy output is an important aspect of energy balance, under conditions such as restricted diet and fasting, mice will reduce basic metabolism, reduce energy expenditure; (2) respiratory exchange ratio (RER), based on the ratio calculated by CO2 produced and the use of 02, RER of 1 means that carbohydrates is mainly used as energy, RER of 0.7 means that fat is mainly used as fuel; (3) physical activity (Activity).
compound,measurement,setting,value
C=Cc1cccc2c1N(C)Cc1cc3c(cc1-2)OCO3 [HLY72],weight of mice,"high-fat diet obese mice [1]; obese mice about 40 g, high-fat diet 22 weeks, 20 mg/kg courses of injection",significantly reduce
same,increase of the proportion of muscle,"high-fat diet obese mice [1]; obese mice, 20 mg/kg courses",about 9 percentage points
same,fat content,"high-fat diet obese mice [1]; obese mice, MRI fat content measuring instrument, 20 mg/kg courses",significantly reduced
same,alanine transaminase ALT,high-fat diet obese mice [2],decreased
same,aspertate aminotransferase AST,high-fat diet obese mice [2],does not change
same,blood glucose,high-fat diet obese mice [2],decreased significantly
same,cholesterol levels,high-fat diet obese mice [2],decreased significantly
same,triacylglycerol,high-fat diet obese mice [2],decreased significantly
same,fatty liver caused by high fat (liver slices),high-fat diet obese mice [2]; HE staining,well treated
same,expression of ACADM,[3]; liver,increased
same,expression of CPT1A,[3]; liver,increased
same,expression of FAT (CD36),[3]; liver,increased
same,expression of FATP2,[3]; liver,increased
same,expression of FATP5,[3]; liver,increased
same,expression of ACADM,[3]; muscle,increased
same,expression of CPT1B,[3]; muscle,increased
same,expression of FATP1,[3]; muscle,increased
same,expression of FATP4,[3]; muscle,increased
same,expression of ATGL (lipolytic gene),[3]; white adipose tissue,increase
same,expression of DGAT (fat storage gene),[3]; white adipose tissue,significantly reduced
same,expression of FAS (fatty acid synthesis gene),[3]; white adipose tissue,significantly down-regulated
same,expression of SCD1 (fatty acid synthesis gene),[3]; white adipose tissue,significantly down-regulated
same,physical activity,[4]; at night,significantly reduced
same,energy expenditure,[4]; at night and during the day,significantly reduced
same,respiratory exchange rate compared with the DMSO group,[4]; at night and during the day,significantly reduced
same,physical activity,[4]; during the day,no change
